Test results reported in patent US20080070971A1, “Medical Use of Bilirubin and its Structural Analogues” (priority 2006, published 2008).

Assays:
Type in all cases: biochemical
[1] = system: Pancreas phospholipase A2 (PLA2); assay: Phospholipase A2 FlashPlate inhibition assay; settings: bilirubin concentration of about 10 mg/L; pH=7.2 (FIG. 1)
Protocol: Pancreas phospholipase A2 (PLA2) (SigmaAldrich Cat.# P223), acetylcholinesterase (SigmaAldrich cat.# C0663), acetyleholine chloride (Cat.# A6625), and bilirubin (SigmaAldrich #B4126) were purchased from SigmaAldrich. Bilirubin solution was prepared freshly by dissolving it in dimethyl sulfoxide (DMSO) and further dilutions were made in Tris-HCl buffer (pH 7.4). The sPLA2 activity was determined by the FlashPlate assay procedure described by Do and Kasila (American Biotechnology Laboratory, June 2001, P 51-52). Briefly, phospholipid flash plates (PerkinElmer Life Sciences, cat. #SMP108) were coated with 0.2 mL/well of the substrate of 1-steroyl 2-arachidonyl phosphatidylcholine (PerkinElmer Life Sciences, cat. #NE872). The plate was covered and incubated overnight at room temperature. After the incubation, the wells were aspirated prior to use in the PLA2 assay. The substrate assay buffer contained 50 mM tris-HCl (pH=7.3), 0.2 M NaCl, 0.1 mM CaCl2, 0.1 mM EDTA, 0.02% deoxycholate, 10-50 units/mL PLA2, and final volume 200 μL/well. The bound radioactivity was determined by counting the FlashPlate.

[2] = system: histone deacetylase (HDAC), HeLa cell lysate; assay: Histone deacetylase (HDAC) assay
Protocol: Assay of histone decaetylase (HDAC). The activity of HDAC was measured according to the procedure provided by SigmaAldrich (Histone Deacetylase Assay Kit, Cat.# CS1010). HeLa cel lysate provided by the assay kit was used as a source for HDAC activity in the inhibition testing.

[3] = system: malate dehydrogenase (MDH); assay: Malate dehydrogenase inhibition; settings: concentration equivalent to the moderate level of serum bilirubin (FIG. 7)
[4] = target: T1, isocitrate dehydrogenase (ICDH) (Sus scrofa, UniProt P33198); assay: Isocitrate dehydrogenase inhibition; settings: concentration equivalent to the moderate level of serum bilirubin (FIG. 7)
T1 construct: purchased SigmaAldrich I2516
T1 sequence (P33198 9-421): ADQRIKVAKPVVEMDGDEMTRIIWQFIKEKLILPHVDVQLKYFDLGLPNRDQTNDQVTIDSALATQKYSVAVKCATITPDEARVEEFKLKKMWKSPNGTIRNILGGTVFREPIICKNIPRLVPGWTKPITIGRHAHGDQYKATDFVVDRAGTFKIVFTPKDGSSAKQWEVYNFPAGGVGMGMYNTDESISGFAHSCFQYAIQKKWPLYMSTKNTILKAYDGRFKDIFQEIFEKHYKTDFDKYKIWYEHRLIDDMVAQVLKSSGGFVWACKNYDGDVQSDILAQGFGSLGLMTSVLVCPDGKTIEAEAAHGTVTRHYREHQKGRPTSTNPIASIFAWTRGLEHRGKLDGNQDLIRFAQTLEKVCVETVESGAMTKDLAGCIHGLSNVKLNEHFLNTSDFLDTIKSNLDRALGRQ
Protocol: NAD (Cat.#N1511), NADH (Cat. N9410), NADP (Cat.#N8610) and NADPG (Cat. #N7505), HMG-CoA (Cat.#H6132) were purchased from Sigma Aldrich (St. Louis, Mo.). NADP-linked isocitrate dehydrogenase was also obtained from SigmaAldrich (Cat.#I2516). Other liver enzymes were prepared as follows.

HMG-CoA reductase = target: T2, HMG-CoA reductase (Homo sapiens, UniProt P04035); assay: HMG-CoA reductase assay in liver microsomes; settings: 10 mg/L (FIG. 5)
T2 construct: from tissue; host or cells: liver microsomes
T2 sequence (P04035 1-888): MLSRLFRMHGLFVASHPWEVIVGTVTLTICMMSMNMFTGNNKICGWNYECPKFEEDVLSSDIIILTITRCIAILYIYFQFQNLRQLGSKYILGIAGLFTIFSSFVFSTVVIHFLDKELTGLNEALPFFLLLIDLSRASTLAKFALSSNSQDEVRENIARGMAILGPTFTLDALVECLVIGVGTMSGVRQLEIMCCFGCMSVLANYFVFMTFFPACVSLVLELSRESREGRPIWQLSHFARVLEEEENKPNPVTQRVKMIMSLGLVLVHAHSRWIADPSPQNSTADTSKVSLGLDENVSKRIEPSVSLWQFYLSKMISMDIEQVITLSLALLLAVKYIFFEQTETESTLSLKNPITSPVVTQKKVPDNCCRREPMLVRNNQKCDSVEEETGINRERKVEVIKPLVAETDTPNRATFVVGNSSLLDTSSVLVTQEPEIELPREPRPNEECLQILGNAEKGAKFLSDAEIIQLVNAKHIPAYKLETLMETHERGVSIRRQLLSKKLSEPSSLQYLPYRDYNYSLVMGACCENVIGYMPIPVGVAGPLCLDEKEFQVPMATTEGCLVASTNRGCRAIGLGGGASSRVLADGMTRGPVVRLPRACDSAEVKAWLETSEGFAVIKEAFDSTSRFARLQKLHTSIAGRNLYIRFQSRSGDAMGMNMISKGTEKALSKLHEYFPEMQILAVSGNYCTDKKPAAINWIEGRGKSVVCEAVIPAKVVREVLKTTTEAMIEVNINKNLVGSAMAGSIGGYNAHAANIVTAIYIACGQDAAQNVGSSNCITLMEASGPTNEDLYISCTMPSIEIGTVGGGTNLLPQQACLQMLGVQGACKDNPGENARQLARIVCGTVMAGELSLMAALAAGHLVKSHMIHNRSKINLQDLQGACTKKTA
Protocol: Liver microsomes, which are used to investigate cholesterol metabolism, were prepared as follows. Liver was homogenized in 50 mM Tris HCl buffer (pH 7.4), containing 0.3 M sucrose, 10 mM DTT, and 10 mM EDTA. The homogenate was centrifuged at 20,000×g for 15 min, and the supernatant was centrifuged at 100,000×g for 60 min. The resulting microsomal fraction was suspended in 3 ml of 0.1 M potassium phosphate buffer (pH 7.4), containing 1 mM EDTA and 5 mM DTT. Aliquots were immediately frozen in liquid nitrogen and stored at −20° C. until analysis.
Assay of HMG-CoA reductase. Microsomal suspensions of […], containing 5 mg protein, were preincubated for 5 min at 37° C. with […] of 0.1 M potassium phosphate buffer (pH 7.4), containing 1 mM EDTA and 12 mM glucose-6-phosphate. The assay was initiated by adding […] of cofactor-substrate solution (0.1 mM HMG-CoA, 3 mM MADPH, and 2 U/ml glucose-6-phosphate dehydrogenase). The incubation was performed at 37+ C. for 30 min and was terminated by the addition of […] of 1 M MaOH. After lactonization, the mevalonolactone was separated by thin layer chromatography. The eluate, which contained mevalonolactone, was collected in a scintillation vial. The radioactivity was then counted in a Packard 3320 scintillation spectrometer.

Question: With `C=CC1=C(C)C(=Cc2[nH]c(Cc3[nH]c(C=C4NC(=O)C(C)=C4C=C)c(C)c3CCC(=O)O)c(CCC(=O)O)c2C)NC1=O` [bilirubin, 2,7,13,17-tetramethyl-1,19-dioxo-3,18-divinyl-1,10,19,22,23,24-hexahydro-21H-biline-8,12-dipropanoic acid] as the compound, how does the “inhibition of the PLA2 activity” value [1] read?
Answer: Its value is “about 80%”.

Question: And the “50% inhibition concentration (IC50)” value ([2]; substrate concentration 5 μM)?
Answer: Its value is 16.5 µg/mL.

Question: And the “50% inhibition concentration (IC50)” value ([2]; substrate concentration 50 μM)?
Answer: Its value is 40 µg/mL.

Question: What about the “inhibition of malate dehydrogenase” value [3] of the same compound?
Answer: The value was “strongly suppressed”.

Question: And the “inhibition of isocitrate dehydrogenase” value [4]?
Answer: The value was “strongly suppressed”.

Question: What about the “reduction of HMG-CoA reductase activity” value (HMG-CoA reductase) of the same compound?
Answer: Its value is no more than 60%.
